Test results taken from patent US20240025862A1, “SUBSTITUTED N-PHENYLURACILS AND SALTS THEREOF, AND USE THEREOF AS HERBICIDAL ACTIVE SUBSTANCES” (Bayer Aktiengesellschaft, priority 2020, published 2024).

Assays:
Assay type in all cases: in vivo
Setaria viridis (SETVI) = test: Post-emergence herbicidal action, greenhouse pot test (also comparative test C); settings: for Post-emergence action against SETVI: 20 g/ha
Method in brief: (§1)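 Green parts of one-leaf-stage plants are sprayed at 600 l/ha with formulated compound plus 0.5% additive, then kept under optimum greenhouse conditions for about 3 weeks. Damage is scored visually, where 100% means dead plants and 0% means no difference from controls.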

[1] = tested on: Matricaria inodora (MATIN); test: as above
Method in brief: as §1

[2] = tested on: Echinochloa crus-galli (ECHCG); test: as above
Method in brief: as §1

[3] = tested on: Alopecurus myosuroides (ALOMY); test: as above; settings: 20 g/ha, rated visually after about 3 weeks vs untreated controls, 100% = plants have died
Method in brief: as §1

Glycine max (GLXMA) = test: Post-emergence crop plant compatibility, greenhouse pot test
Method in brief: (§2)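 Seeds are sown in sandy loam and grown under controlled greenhouse conditions. At the one-leaf stage (2–3 weeks), foliage is sprayed with the formulated compound in water containing 0.5% additive at 600 l/ha. About 3 weeks later, injury is rated visually in % against untreated plants.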

Brassica napus (BRSNW) = test: as above; settings: 1.25 g/ha, vs untreated controls
Method in brief: as §2

[4] = tested on: Triticum aestivum (TRZAS); test: as above; settings: vs untreated controls
Method in brief: as §2

Oryza sativa (ORYSA) = test: Post-emergence crop plant compatibility, greenhouse pot test (also comparative test C); settings: for Post-emergence action against ORYSA (crop plant compatibility): vs untreated controls
Method in brief: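 Rice and other crops sprayed post-emergence at one-leaf stage (2–3 weeks after sowing) with WP or EC formulations plus 0.5% additive at 600 l/ha water. Visual rating about 3 weeks later versus untreated controls (100% = dead, 0% = like control); suffixes a–c denote different doses.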

[5] = tested on: Pharbitis purpurea (PHBPU); test: Post-emergence herbicidal action, greenhouse pot test
Method in brief: (§3)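 Greenhouse-grown weeds in sandy loam were sprayed post-emergence at the one-leaf stage, 2–3 weeks after sowing. Compounds were formulated as WP or EC in water with 0.5% additive at 600 l/ha, at rates of 20 g/ha or less. Visual rating after about 3 weeks used a scale from 0% (like untreated control) to 100% (plants dead).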

Viola tricolor (VIOTR) = test: as above
Method in brief: as §3

[6] = tested on: Polygonum convolvulus (POLCO); test: as above
Method in brief: as §3

Stellaria media (STEME) = test: as above
Method in brief: as §3

[7] = tested on: Amaranthus retroflexus (AMARE); test: as above; settings: rated visually after about 3 weeks vs untreated controls, 100% = plants have died
Method in brief: as §3

Veronica persica (VERPE) = test: as above
Method in brief: as §3

[8] = tested on: Abutilon theophrasti (ABUTH); test: as above; settings: rated visually after about 3 weeks vs untreated controls, 100% = plants have died
Method in brief: as §3

Post-emergence action against GLXMA in % (Glycine max (GLXMA); 1.25 g/ha)	Post-emergence action against GLXMA in % (Glycine max (GLXMA); 5 g/ha)	Post-emergence action against BRSNW (crop plant compatibility) (Brassica napus (BRSNW))	Post-emergence action against TRZAS (crop plant compatibility) ([4]; 1.25 g/ha)	Post-emergence action against TRZAS (crop plant compatibility) ([4]; 5 g/ha)	Post-emergence action against ORYSA (crop plant compatibility) (Oryza sativa (ORYSA); 1.25 g/ha)	Post-emergence action against ORYSA (crop plant compatibility) (Oryza sativa (ORYSA); 5 g/ha)	SMILES	Post-emergence action against SETVI (Setaria viridis (SETVI))	Post-emergence action against SETVI in % (Setaria viridis (SETVI); dosage 1.25 g/ha)	Post-emergence action against SETVI in % (Setaria viridis (SETVI); dosage 5 g/ha)	Post-emergence action against MATIN in % ([1]; dosage 20 g/ha)	Post-emergence action against ECHCG in % ([2]; dosage 20 g/ha)	Post-emergence action at 20 g/ha against ALOMY in % [3]	Post-emergence action against PHBPU in % ([5]; dosage 1.25 g/ha)	Post-emergence action against PHBPU in % ([5]; dosage 5 g/ha)	Post-emergence action against PHBPU in % ([5]; dosage 20 g/ha)	Post-emergence action against VIOTR (Viola tricolor (VIOTR); 1.25 g/ha)	Post-emergence action against VIOTR (Viola tricolor (VIOTR); 5 g/ha)	Post-emergence action against VIOTR (Viola tricolor (VIOTR); 20 g/ha)	Post-emergence action against POLCO in % ([6]; dosage 5 g/ha)	other results
0%	10%	10%	20%	20%	0%	20%	CC(Oc1ccccc1Sc1cc(-n2c(=O)cc(C(F)(F)F)n(C)c2=O)c(F)cc1Cl)C(=O)OCC1CCOC1 (mixture of isomers) [I.2-72]	100%	90%	100%	100%	80%	90%	100%	100%	100%	100%	100%	100%	80%	Post-emergence action against ECHCG in % ([2]; dosage 5 g/ha): 80%; Post-emergence action against POLCO in % ([6]; dosage 20 g/ha): 100%; Post-emergence action against STEME (Stellaria media (STEME); 5 g/ha): 100%; Post-emergence action against STEME (Stellaria media (STEME); 20 g/ha): 100%; Post-emergence action at 1.25 g/ha against AMARE in % [7]: 90%; Post-emergence action at 5 g/ha against AMARE in % [7]: 100%; Post-emergence action at 20 g/ha against AMARE in % [7]: 100%; Post-emergence action against VERPE (Veronica persica (VERPE); 1.25 g/ha): 100%; Post-emergence action against VERPE (Veronica persica (VERPE); 5 g/ha): 100%; Post-emergence action against VERPE (Veronica persica (VERPE); 20 g/ha): 100%; Post-emergence action at 5 g/ha against ABUTH in % [8]: 100%; Post-emergence action at 20 g/ha against ABUTH in % [8]: 100%
0%	0%	10%	20%	20%	10%	10%	CCOCCOC(=O)C(C)Oc1ccccc1Sc1cc(-n2c(=O)cc(C(F)(F)F)n(C)c2=O)c(F)cc1Cl (racemic) [I.2-2]	100%	100%	100%	100%	90%	80%	100%	100%	100%	100%	100%	100%	100%	Post-emergence action against MATIN in % ([1]; dosage 5 g/ha): 80%; Post-emergence action against GLXMA in % (Glycine max (GLXMA); 20 g/ha): 10%; Post-emergence action against ORYSA in % (Oryza sativa (ORYSA); 20 g/ha, crop plant compatibility): 20%; Post-emergence action against POLCO in % ([6]; dosage 20 g/ha): 100%; Post-emergence action against STEME (Stellaria media (STEME); 5 g/ha): 100%; Post-emergence action against STEME (Stellaria media (STEME); 20 g/ha): 100%; Post-emergence action at 1.25 g/ha against AMARE in % [7]: 100%; Post-emergence action at 5 g/ha against AMARE in % [7]: 100%; Post-emergence action at 20 g/ha against AMARE in % [7]: 100%; Post-emergence action against VERPE (Veronica persica (VERPE); 1.25 g/ha): 100%; Post-emergence action against VERPE (Veronica persica (VERPE); 5 g/ha): 100%; Post-emergence action against VERPE (Veronica persica (VERPE); 20 g/ha): 100%; Post-emergence action at 1.25 g/ha against ABUTH in % ([8]; 1.25 g/ha): 80%; Post-emergence action at 5 g/ha against ABUTH in % [8]: 100%; Post-emergence action at 20 g/ha against ABUTH in % [8]: 100%
